Test results taken from patent US11154563B2, “Immunoproteasome inhibitors” (Principia Biopharma Inc., priority 2017, dated 2021).
pIC50: −log10 of the molar value.

Legend:
Assay type in all cases: biochemical
[1] = target: immunoproteasome LMP7/B5i subunit (Homo sapiens, UniProt P20618+P28062); assay: Caliper-based proteasome enzymatic activity assay, LMP7; settings: human recombinant immunoproteasome 0.3 nM, FAM-peptide substrate 1 μM, 3 h at rt
Method in brief: (§1)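 Recombinant human immunoproteasome or constitutive proteasome (0.3 nM) with 1 μM FAM-peptide in 20 mM Hepes pH 7.4, 0.015% SDS, 0.01% BSA; LMP7/β5c ran 3 h at rt and were stopped with 5 uM carfilzomib, LMP2 ran 2 h and was stopped with 6.7 uM ixazomib. Cleaved product quantified by microfluidic separation; IC50 from percent inhibition.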

[2] = target: constitutive proteasome β5c unit (Homo sapiens, UniProt P20618+P28074); assay: Caliper-based proteasome enzymatic activity assay, β5c; settings: human recombinant constitutive proteasome 0.3 nM, FAM-peptide substrate 1 μM, 3 h at rt; read-out: β5c subunit IC50
Method in brief: as §1

[3] = target: immunoproteasome LPM2/β1i subunit (Homo sapiens, UniProt P28065+P40306); assay: Caliper-based proteasome enzymatic activity assay, LMP2; settings: human recombinant immunoproteasome 0.3 nM, FAM-peptide substrate 1 μM, 2 h at rt
Procedure: A Caliper-based proteasome assay (Caliper Life Sciences, Hopkinton, Mass.) was used to measure inhibition of the immunoproteasome LMP7/B5i subunit, the immunoproteasome LPM2/β1i subunit, and the constitutive proteasome β5c unit for a compound of Formula (I). For LMP7 and β5c, serial dilutions of test compounds were incubated with either human recombinant immunoprotcasome or constitutive proteasome (0.3 nM enzyme) and a carboxyfluorescein (FAM)-labeled peptide substrate FAM-TYETFKSIMKKSPF-NH2 (1 μM) at it for 3 h. The reaction was then terminated with a buffer containing the known proteasome inhibitor carfilzomib at a concentration of 5 uM. For LMP2, serial dilutions of test compounds were incubated with human recombinant immunoproteasome proteasome (0.3 nM enzyme) and a carboxyfluorescein (FAM)-labeled peptide substrate FAM-[…]-NH2 (1 μM) at rt for 2 h. The reaction was then terminated with a buffer containing the known proteasome inhibitor ixazomib at a concentration of 6.7 uM. The reaction buffer was 20 mM Hepes pH 7.4, 0.01% bovine serum albumin, 0.015% SDS, 0.5 mM EDTA, 1%0/DMSO. The peptide cleavage reaction product was quantified on a Caliper LabChip 3000. Percent inhibition was calculated for each compound dilution and the concentration that produced 50% inhibition was calculated. This value is presented as the IC50.

Row | SMILES | pIC50 [1] | pIC50 [2] | pIC50 [3]
1 | CC(C)(C)C=C(C#N)C(=O)N1C[C@@H]2C[C@@H]2[C@@H]1COC(=O)N[C@@H](Cc1ccccc1)B(O)O [Example 26] | 8.92 | 5.68 | < 5.30
2 | CC(C)(C=C(C#N)C(=O)N1CCC[C@@H]1COC(=O)N[C@@H](Cc1ccccc1)B(O)O)N1CCCCC1 [Example 20, ((R)-1-(((((R)-1-(2-cyano-4-methyl-4-(piperidin-1l-yl)pent-2-enoyl)pyrrolidin-2-yl)methoxy)carbonyl)amino)-2-phenylethyl)boronic acid] | 8.44 | 5.34 | < 5.30
3 | CC(C)(C=C(C#N)C(=O)N1CCC[C@@H]1COC(=O)N[C@@H](Cc1ccccc1)B(O)O)N1CCOCC1 [Example 23, ((R)-1-(((((R)-1-(2-cyano-4-methyl-4-morpholinopent-2-enoyl)pyrrolidin-2-yl)methoxy)carbonyl)amino)-2-phenylethyl)boronic acid] | 8.59 | < 5.30 | < 5.30
4 | CC(C)(C=C(C#N)C(=O)N1CCCC[C@@H]1COC(=O)N[C@@H](Cc1ccccc1)B(O)O)N1CCCC1 [Example 27] | 7.96 | 5.46 | < 5.30
5 | C=CC(=O)N1CCCC[C@@H]1COC(=O)N[C@@H](Cc1ccccc1)B(O)O [Example 8, ((R)-1-(((((R)-1-acryloylpiperidin-2-yl)methoxy)carbonyl)amino)-2-phenylethyl)boronic acid] | < 5.30 | < 5.30 | < 5.30
6 | CC(C)(C)C=C(C#N)C(=O)N1C[C@H]2C[C@H]2[C@H]1COC(=O)N[C@@H](Cc1ccccc1)B(O)O [Example 22, ((R)-1-(((((1R,2S,5S)-3-(2-cyano-4,4-dimethylpent-2-enoyl)-3-azabicyclo[3.1.0]hexan-2-yl)methoxy)carbonyl)amino)-2-phenylethyl)boronic acid] | 8.74 | < 5.30 | < 5.30

Now from value to molecule:

Row | pIC50 [1] | pIC50 [2] | pIC50 [3] | SMILES
7 | 8.89 | 6.64 | < 5.30 | CC(C)(C=C(C#N)C(=O)N1CCC[C@@H]1COC(=O)N[C@@H](Cc1coc2ccccc12)B(O)O)N1CCOCC1 [Example 40, ((R)-2-(benzofuran-3-yl)-1-(((((R)-(2-cyano-4-methyl-4-morpholinopent-2-enoyl)pyrrolidin-2-yl)methoxy)carbonyl)amino)ethyl)boronic acid]
8 | 8.40 | 5.71 | < 5.30 | CC(C)(C)C=C(C#N)C(=O)N1C[C@H]2C[C@H]2[C@@H]1COC(=O)N[C@@H](Cc1ccccc1)B(O)O [Example 37, ((R)-1-(((((1R,2R,5S)-3-(2-cyano-4,4-dimethylpent-2-enoyl)-3-azabicyclo[3.1.0]hexan-2-yl)methoxy)carbonyl)amino)-2-phenylethyl)boronic acid]
9 | 8.80 | 6.29 | < 5.30 | Cc1ccc(C[C@H](NC(=O)OC[C@H]2CCCCN2C(=O)C(C#N)=CC(C)(C)N2CCC(F)(F)C2)B(O)O)cc1 [Example 41, ((R)-1-(((((R)-1-(2-cyano-4-(3,3-difluoropyrrolidin-1-yl)-4-methylpent-2-enoyl)piperidin-2-yl)methoxy)carbonyl)amino)-2-(p-tolyl)ethyl)boronic acid]
10 | 9.15 | 5.95 | 5.35 | CC(C)(C)/C=C(\C#N)C(=O)N1C[C@@H](F)C[C@@H]1COC(=O)N[C@@H](Cc1ccccc1)B(O)O [Example 102, ((R)-1-(((((2R,4S)-1-((E)-2-cyano-4,4-dimethylpent-2-enoyl)-4-fluoropyrrolidin-2-yl)methoxy)carbonyl)amino)-2-phenylethyl)boronic acid]
11 | 7.80 | < 5.30 | < 5.30 | CC(C)(C=C(C#N)C(=O)N1CCCC[C@@H]1COC(=O)N[C@@H](Cc1ccccc1)B(O)O)N1CCCCC1 [Example 30, ((R)-1-(((((R)-1-(2-cyano-4-methyl-4-(piperidin-1-yl)pent-2-enoyl)piperidin-2-yl)methoxy)carbonyl)amino)-2-phenylethyl)boronic acid]
